Assay results reported in patent publication US7507727B2, “Substituted quinobenzoxazine analogs and methods of using thereof” (Cylene Pharmaceuticals, Inc., priority 2003, dated 2009).

target: c-Myc template DNA (c-myc quadruplex); assay: Quadruplex binding / stop assay (Taq polymerase arrest, capillary electrophoresis); settings: read-out: Stop Data c-Myc μM; concentration at which 50% of the DNA was arrested (arrested:full-length 1:1)

| IC50 [µM] | SMILES |
| --- | --- |
| 4 | O=C(O)c1cn2c3c(c(NCC4CCCO4)c(F)cc3c1=O)Oc1cc3ccccc3cc1-2 (stereo not shown) [compound 1] |
| 2.5 | O=C(O)c1cn2c3c(c(NCCN4CCCC4)c(F)cc3c1=O)Oc1cc3ccccc3cc1-2 [compound 2] |
| 2.5 | O=C(O)c1cn2c3c(c(NCCN4CCCC4)c(F)cc3c1=O)Oc1c-2ccc2ccccc12 [compound 3] |
| 1.76 | CN(C)CCCCNc1c(F)cc2c(=O)c(C(=O)O)cn3c2c1Oc1c-3ccc2ccccc12 [compound 4] |
| 1.75 | O=C(O)c1cn2c3c(c(NCCCN4CCOCC4)c(F)cc3c1=O)Oc1cc3c(cc1-2)-c1ccccc1C3 [compound 6] |
| 1.75 | CN1CCCC1CCNc1c(F)cc2c(=O)c(C(=O)O)cn3c2c1Oc1cc2ccccc2cc1-3 (stereo not shown) [compound 7] |
| 1.75 | CN(C)CCCCNc1c(F)cc2c(=O)c(C(=O)O)cn3c2c1Oc1cc2ccccc2cc1-3 [compound 8] |
| 1.75 | Nc1ccc2[nH]c3cc4oc5c(NCCN6CCCC6)c(F)cc6c(=O)c(C(=O)O)cn(c4cc3oc2c1)c56 [compound 9] |
| 1.75 | CN(C)c1c(F)cc2c(=O)c(C(=O)O)cn3c4cc5oc6cc(N)ccc6[nH]c5cc4oc1c23 [compound 10] |
| 1.75 | Nc1ccc2[nH]c3cc4oc5c(N6CC[C@H](N)C6)c(F)cc6c(=O)c(C(=O)O)cn(c4cc3oc2c1)c56 [compound 11] |
| 1.75 | O=C(O)c1cn2c3c(c(NCCCN4CCOCC4)c(F)cc3c1=O)Oc1cc3c(O)ncnc3cc1-2 [compound 12] |
| 1.75 | Nc1c(F)c(F)c2c3c1c(=O)c(C(=O)O)cn3-c1cc3ccccc3cc1O2 [compound 13] |
| 1.75 | Nc1c(F)c(NCCCN2CCOCC2)c2c3c1c(=O)c(C(=O)O)cn3-c1cc3ccccc3cc1O2 [compound 14] |
| 1.75 | CC(C)(C)OC(=O)NC1CCN(c2c(F)c(N)c3c(=O)c(C(=O)O)cn4c3c2Oc2cc3ccccc3cc2-4)C1 (stereo not shown) [compound 15] |
| 0.9 | Nc1c(F)cc2c(=O)c(C(=O)O)cn3c2c1Oc1c-3ccc2ccccc12 [compound 16] |
| 0.75 | O=C(O)c1cn2c3cc4oc5cc([N+](=O)[O-])ccc5[nH]c4cc3oc3c(NCCN4CCCC4)c(F)cc(c1=O)c32 [compound 17] |
| 0.75 | O=C(O)c1cn2c3cc4oc5cc([N+](=O)[O-])ccc5[nH]c4cc3oc3c(NCCCN4CCOCC4)c(F)cc(c1=O)c32 [compound 18] |
| 0.75 | CN(C)CCCCNc1c(F)cc2c(=O)c(C(=O)O)cn3c4cc5oc6cc([N+](=O)[O-])ccc6[nH]c5cc4oc1c23 [compound 19] |
| 0.75 | CN1CCCC1CCNc1c(F)cc2c(=O)c(C(=O)O)cn3c4cc5oc6cc(N)ccc6[nH]c5cc4oc1c23 (stereo not shown) [compound 20] |
| 0.75 | CN(C)CCCCNc1c(F)cc2c(=O)c(C(=O)O)cn3c4cc5oc6cc(N)ccc6[nH]c5cc4oc1c23 [compound 21] |
| 0.75 | CN1CCN(CCCNc2c(F)cc3c(=O)c(C(=O)O)cn4c5cc6oc7cc(N)ccc7[nH]c6cc5oc2c34)CC1 [compound 22] |
| 0.75 | O=C(O)c1cn2c3c(c(N4CC5CCCNC5C4)c(F)cc3c1=O)Oc1cc3ccccc3cc1-2 (stereo not shown) [compound 23] |
| 2.5 | CN(CCc1ccccn1)C(=O)c1ccc2c(c1)Oc1c(NCCCn3ccnc3)c(F)cc3c(=O)c(C(=O)N(C)CCc4ccccn4)cn-2c13 [compound 39] |
| 2.5 | O=C(NCCCn1ccnc1)c1cn2c3c(c(NCCCn4ccnc4)c(F)cc3c1=O)Oc1cc3ccccc3cc1-2 [compound 40] |
| 2.5 | CN1CCCN(c2c(F)cc3c(=O)c(C(=O)N4CCOCC4)cn4c3c2Oc2cc3ccccc3cc2-4)CC1 [compound 41] |

| IC50 [µM] | SMILES |
| --- | --- |
| 2.5 | CCN1CCCC1CNc1c(F)cc2c(=O)c(C(=O)N3CCOCC3)cn3c2c1Oc1cc2ccccc2cc1-3 (stereo not shown) [compound 42] |
| 2.5 | O=C(c1cn2c3c(c(NCCN4CCCC4)c(F)cc3c1=O)Oc1cc3ccccc3cc1-2)N1CCOCC1 [compound 43] |
| 2.5 | O=C(c1cn2c3c(c(NCC4CCNCC4)c(F)cc3c1=O)Oc1cc3ccccc3cc1-2)N1CCOCC1 [compound 44] |
| 2.5 | CCCCN(CCCC)CCCNc1c(F)cc2c(=O)c(C(=O)N3CCOCC3)cn3c2c1Oc1cc2ccccc2cc1-3 [compound 45] |
| 2.5 | O=C(Nc1nnc(C(F)(F)F)s1)c1cn2c3c(c(NCCN4CCCC4)c(F)cc3c1=O)Oc1ccccc1-2 [compound 46] |
| 2.5 | O=C(NCCCN1CCOCC1)c1cn2c3c(c(NCCCN4CCOCC4)c(F)cc3c1=O)Oc1ccccc1-2 [compound 47] |
| 2.5 | O=C(NCCN1CCOCC1)c1cn2c3c(c(NCCCN4CCOCC4)c(F)cc3c1=O)Oc1cc3ccccc3cc1-2 [compound 48] |
| 2.5 | CN1CCN(CCCNC(=O)c2cn3c4c(c(NCCCN5CCOCC5)c(F)cc4c2=O)Oc2cc4ccccc4cc2-3)CC1 [compound 49] |
| 2.5 | CC(C)(C)OC(=O)N[C@@H]1CCN(C(=O)c2cn3c4c(c(NCCCN5CCOCC5)c(F)cc4c2=O)Oc2cc4ccccc4cc2-3)C1 [compound 50] |
| 2.5 | CN1CCCC1CCNC(=O)c1cn2c3c(c(NCCCN4CCOCC4)c(F)cc3c1=O)Oc1cc3ccccc3cc1-2 (stereo not shown) [compound 51] |
| 2.5 | CN(C)CCCCNC(=O)c1cn2c3c(c(NCCCN4CCOCC4)c(F)cc3c1=O)Oc1cc3ccccc3cc1-2 [compound 52] |
| 2.5 | O=C(NCCCN1CCOCC1)c1cn2c3c(c(NCCN4CCOCC4)c(F)cc3c1=O)Oc1cc3ccccc3cc1-2 [compound 53] |
| 2.5 | O=C(NCCN1CCOCC1)c1cn2c3c(c(NCCN4CCOCC4)c(F)cc3c1=O)Oc1cc3ccccc3cc1-2 [compound 54] |
| 2.5 | CN1CCN(CCCNC(=O)c2cn3c4c(c(NCCN5CCOCC5)c(F)cc4c2=O)Oc2cc4ccccc4cc2-3)CC1 [compound 55] |
| 2.5 | CC(C)(C)OC(=O)N[C@@H]1CCN(C(=O)c2cn3c4c(c(NCCN5CCOCC5)c(F)cc4c2=O)Oc2cc4ccccc4cc2-3)C1 [compound 56] |
| 2.5 | CN1CCCC1CCNC(=O)c1cn2c3c(c(NCCN4CCOCC4)c(F)cc3c1=O)Oc1cc3ccccc3cc1-2 (stereo not shown) [compound 57] |
| 2.5 | O=C(NCCN1CCCC1)c1cn2c3c(c(NCCN4CCOCC4)c(F)cc3c1=O)Oc1cc3ccccc3cc1-2 [compound 58] |
| 2.5 | CN(C)CCCCNC(=O)c1cn2c3c(c(NCCN4CCOCC4)c(F)cc3c1=O)Oc1cc3ccccc3cc1-2 [compound 59] |
| 2.5 | CN1CCN(CCCNc2c(F)cc3c(=O)c(C(=O)NCCN4CCOCC4)cn4c3c2Oc2cc3ccccc3cc2-4)CC1 [compound 60] |
| 2.5 | CN1CCN(CCCNc2c(F)cc3c(=O)c(C(=O)N4CC[C@@H](NC(=O)OC(C)(C)C)C4)cn4c3c2Oc2cc3ccccc3cc2-4)CC1 [compound 61] |
| 2.5 | CC(C)(C)OC(=O)N[C@@H]1CCN(c2c(F)cc3c(=O)c(C(=O)NCCCN4CCOCC4)cn4c3c2Oc2cc3ccccc3cc2-4)C1 [compound 62] |
| 2.5 | CC(C)(C)OC(=O)N[C@@H]1CCN(c2c(F)cc3c(=O)c(C(=O)NCCN4CCOCC4)cn4c3c2Oc2cc3ccccc3cc2-4)C1 [compound 63] |
| 2.5 | CN1CCN(CCCNC(=O)c2cn3c4c(c(N5CC[C@@H](NC(=O)OC(C)(C)C)C5)c(F)cc4c2=O)Oc2cc4ccccc4cc2-3)CC1 [compound 64] |
| 2.5 | CC(C)(C)OC(=O)N[C@@H]1CCN(C(=O)c2cn3c4c(c(N5CC[C@@H](NC(=O)OC(C)(C)C)C5)c(F)cc4c2=O)Oc2cc4ccccc4cc2-3)C1 [compound 65] |
